conditions: not given

In order of falling melting point:
1. O=C1c2ccccc2C(=O)c2ccccc21  286 °C
2. O=C(O)c1cnc(O)nc1O  283 °C
3. NS(=O)(=O)c1cc(C(=O)O)ccc1Cl  257 °C
4. C=C[C@H]1CN2CCC1C[C@@H]2[C@@H](O)c1ccnc2ccccc12 (stereo partly specified)  238 °C
5. COc1cc(NS(C)(=O)=O)ccc1Nc1c2ccccc2nc2ccccc12  235 °C
6. CC(=O)[C@@]1(O)[C@H](O)C[C@H]2[C@@H]3CCC4=CC(=O)CC[C@]4(C)[C@H]3CC[C@@]21C  225 °C
7. c1ccc2oc(-c3ccc(-c4nc5ccccc5o4)s3)nc2c1  219 °C
8. O=C(Nc1ccc2nn(C3CCCCC3)nc2c1)c1ccccc1  212 °C
9. COc1ccn(C)c(=O)c1C#N  202 °C
10. Clc1cc2oc3c(Cl)c(Cl)ccc3c2cc1Cl  195 °C
11. C[C@H]1[C@H](C)CC[C@]2(C)CC[C@]3(C)C(=CC[C@@H]4[C@@]5(C)CC[C@H](O)C(C)(C)[C@@H]5CC[C@]43C)[C@H]12  186 °C
12. CC1=C(/C=C/C(C)=C/C=C/C(C)=C/C=C/C=C(C)/C=C/C=C(C)/C=C/C2=C(C)C(=O)C(O)CC2(C)C)C(C)(C)CC(O)C1=O (stereo unspecified)  182 °C
13. Cl.Cl.Cl.Cl.Nc1ccc(-c2ccc(N)c(N)c2)cc1N  179 °C
14. COc1ccc2c(c1OC)C(=O)O[C@@H]2[C@H]1c2c(cc3c(c2OC)OCO3)CCN1C  176 °C
15. CCC1(c2ccccc2)C(=O)NC(=O)NC1=O  174 °C
16. Nc1cccc(C(=O)O)c1  173 °C
17. CCOc1ccc(NC(=O)CC(C)O)cc1 (stereo unspecified)  160 °C
18. Cc1ccccc1NC(=S)Nc1ccccc1C  158 °C
19. Clc1ccc(-c2ccc(Cl)cc2)cc1  149 °C
20. O=C(O)COc1ccc(Cl)cc1Cl  140 °C
21. CCOC(=O)C=Cc1ccc([N+](=O)[O-])cc1  139 °C
22. Nc1cc2ccccc2c2ccccc12  138 °C
23. CN=C(O)Sc1ccc(OS(C)(=O)=O)cc1  137 °C
24. O=C(O)c1cc(F)ccc1F  133 °C
25. Brc1ccc2c(c1)Cc1ccccc1-2  114 °C
26. CC[N+](CC)(CCOc1ccc(C(C)(C)CC(C)(C)C)cc1)Cc1ccccc1.[Cl-]  113 °C
27. CCN(CC)C(=O)Nc1ccc(OCC(O)CNC(C)(C)C)c(C(C)=O)c1 (stereo unspecified)  111 °C
28. CC(=O)N(C)c1ccccc1  103 °C
29. CNC(=O)COc1ccccc1OCC(O)CNC(C)(C)C (stereo unspecified)  96.5 °C
30. COc1cc(C#N)cc(OC)c1OC  93.8 °C
31. COc1c(Cl)c(Cl)cc(Cl)c1Cl  88.5 °C
32. Clc1cc(Cl)c(-c2c(Cl)cccc2Cl)c(Cl)c1  85 °C
33. COc1ccc2ccc(=O)oc2c1CC=C(C)C  83.5 °C
34. CN(C)c1ccc(O)cc1  77 °C
35. O=C(O)[C@@H]1CCCN1C(=O)OCc1ccccc1  77 °C
36. O=[N+]([O-])c1c(Cl)cccc1Cl  72.5 °C
37. O=Cc1ccc(Cl)cc1Cl  72 °C
38. COc1cc(O)c(C=O)c(OC)c1  70 °C
39. Nc1cccc(N)c1  63.5 °C
40. Cc1cc(O)ccc1Br  63.5 °C
41. O=[N+]([O-])c1cccc(Cl)c1Cl  61.5 °C
42. c1ccc([As](c2ccccc2)c2ccccc2)cc1  61 °C
43. c1ccc(CCc2ccccc2)cc1  52.5 °C
44. Cc1ccc([N+](=O)[O-])cc1  51.6 °C
45. Cc1cc(Cl)ccc1O  51 °C
46. CC1c2ccccc2-c2ccccc21  46.5 °C
47. CCCCCCCCCCCCCC(=O)CC  43 °C
48. Oc1ccc(Br)cc1Br  38 °C
49. COc1ccc(CO)cc1  25 °C
50. C=Cc1ccc(N)cc1  23.5 °C
51. CCCCCCCCCCC=CCCCCCCCC(=O)O  23 °C
52. CCCCC(O)(CCCC)CCCC  20 °C
53. O=C(Cl)c1ccc(Cl)cc1  16 °C
54. O=c1cccco1  8.5 °C
55. CCCCCC[C@@H](O)C/C=C\CCCCCCCC(=O)O  5.5 °C
56. Clc1ccccc1I  0.7 °C
57. CN1CCNCC1  -6 °C
58. CC(C)c1cc(C(C)C)cc(C(C)C)c1  -7.4 °C
59. CCCCCCCCCCc1ccccc1  -14.4 °C
60. OCC(F)(F)C(F)F  -15 °C
61. CCCCCCOc1ccccc1  -19 °C
62. CC(C)CCCCCCCOC(=O)c1ccccc1C(=O)OCCCCCCCC(C)C  -45.6 °C
63. CC(=O)C(C)(C)C  -52.5 °C
64. CCCC(C)(C)C(C)(C)C  -54 °C
65. CCc1cccc(Cl)c1  -55 °C
66. CC1CCCSC1 (stereo unspecified)  -60 °C
67. CC(C)=CCCC=C(C)C  -74.4 °C
68. CC(C)=C(C)C  -74.6 °C
69. CCOC=O  -79.6 °C
70. CC1=CCCC1C (stereo unspecified)  -118 °C

In order of rising boiling point:
1. CN(C)C  2.87 °C
2. OC(C(F)(F)F)(C(F)(F)F)C(F)(F)F  45 °C
3. CCOC=O  54.4 °C
4. CC(C)=C(C)C  73.3 °C
5. CC(Cl)Br (stereo unspecified)  83 °C
6. CC1=CCCC1C (stereo unspecified)  99 °C
7. CC(=O)C(C)(C)C  106 °C
8. OCC(F)(F)C(F)F  110 °C
9. CCCCN=C=O  115 °C
10. CN1CCNCC1  138 °C
11. CN1CCCC(CO)C1 (stereo unspecified)  142 °C
12. CCC/C=C/C=O  146 °C
13. CC(C)c1cccs1  153 °C
14. CCCC(O)C(C)(C)C (stereo unspecified)  156 °C
15. CC1CCCSC1 (stereo unspecified)  158 °C
16. CCCC(C)(C)C(C)(C)C  160 °C
17. CC(O)c1ccco1 (stereo unspecified)  162 °C
18. BrC=C(Br)Br  164 °C
19. CC(C)=CCCC=C(C)C  166 °C
20. CCc1cccc(Cl)c1  184 °C
21. CCC(C)(C)c1ccccc1  192 °C
22. CCC(C)Cc1ccccc1 (stereo unspecified)  195 °C
23. CCN(CC)[N+](=O)[O-]  206 °C
24. CCOC(=O)C(Cl)(Cl)C(C)=O  206 °C
25. O=c1cccco1  208 °C
26. Cc1cc(Cl)ccc1O  209 °C
27. CCOC(=O)CC(C)C(=O)OCC (stereo unspecified)  218 °C
28. C=CCNc1ccccc1  219 °C
29. O=C(Cl)c1ccc(Cl)cc1  222 °C
30. COc1ccccc1CN  229 °C
31. CCCCCCSCCCCCC  230 °C
32. O=Cc1ccc(Cl)cc1Cl  233 °C
33. Clc1ccccc1I  234 °C
34. Cc1ccc([N+](=O)[O-])cc1  238 °C
35. Oc1ccc(Br)cc1Br  238 °C
36. CC(C)c1cc(C(C)C)cc(C(C)C)c1  238 °C
37. CCCCCCOc1ccccc1  240 °C
38. COC(=O)c1ccccc1Br  252 °C
39. CC(=O)N(C)c1ccccc1  256 °C
40. O=[N+]([O-])c1cccc(Cl)c1Cl  258 °C
41. COc1ccc(CO)cc1  259 °C
42. c1ccc(CCc2ccccc2)cc1  284 °C
43. Nc1cccc(N)c1  285 °C
44. CCCCCCCCCCc1ccccc1  298 °C
45. Clc1ccc(-c2ccc(Cl)cc2)cc1  317 °C
46. c1ccc([As](c2ccccc2)c2ccccc2)cc1  360 °C
47. O=C1c2ccccc2C(=O)c2ccccc21  377 °C

In order of rising log10 Henry constant (atm·m³/mol):
1. Cc1ccc([N+](=O)[O-])cc1  -5.25
2. OCC(F)(F)C(F)F  -5.2
3. CN(C)C  -3.98
4. Clc1ccc(-c2cccc(Cl)c2Cl)cc1  -3.85
5. Clc1ccc(-c2ccc(Cl)cc2)cc1  -3.7
6. CCOC=O  -3.41

In order of rising log10 vapour pressure (mmHg):
1. Clc1cc2oc3c(Cl)c(Cl)ccc3c2cc1Cl  -7.68
2. O=C1c2ccccc2C(=O)c2ccccc21  -6.94
3. CC(C)CCCCCCCOC(=O)c1ccccc1C(=O)OCCCCCCCC(C)C  -6.28
4. c1ccc([As](c2ccccc2)c2ccccc2)cc1  -4.3
5. O=C(O)COc1ccc(Cl)cc1Cl  -4.08
6. Clc1ccc(-c2ccc(Cl)cc2)cc1  -3.27
7. CCCCCCCCCCc1ccccc1  -2.89
8. COc1cc(Cl)c(Cl)c(Cl)c1O  -2.73
9. Nc1cccc(N)c1  -2.68
10. c1ccc(CCc2ccccc2)cc1  -2.14
11. Cc1ccc([N+](=O)[O-])cc1  -1.8
12. Cc1cc(Cl)ccc1O  -1.62
13. CCCC(C)(C)C(C)(C)C  0.589
14. OCC(F)(F)C(F)F  1.17
15. CCCCN=C=O  1.25
16. CC(=O)C(C)(C)C  1.5
17. CC1CCCC1C (stereo unspecified)  1.67
18. CC(Cl)Br (stereo unspecified)  1.93
19. CC(C)=C(C)C  2.1
20. CCOC=O  2.39
21. CN(C)C  3.21

For `Cc1ccc([N+](=O)[O-])cc1`, the ready biodegradability was “not readily biodegradable”.
In the case of `O=c1c2ccccc2c(=O)c2c1ccc1[nH]c3c(ccc4c(=O)c5ccccc5c(=O)c43)[nH]c12`, the ready biodegradability is reported as “not readily biodegradable”.
In the case of `CC(C)CCCCCCCOC(=O)c1ccccc1C(=O)OCCCCCCCC(C)C`, the ready biodegradability is reported as “readily biodegradable”.
With `Oc1ccc(Br)cc1Br` the ready biodegradability was “not readily biodegradable”.
For `CCC1(c2ccccc2)C(=O)NC(=O)NC1=O`, the ready biodegradability was “not readily biodegradable”.
For `Nc1c(Cl)cc(-c2cc(Cl)c(N)c(S(=O)(=O)O)c2)cc1S(=O)(=O)O`, the ready biodegradability was “not readily biodegradable”.
With `CN(C)C` the ready biodegradability was “readily biodegradable”.
In the case of `Nc1cccc(N)c1`, the ready biodegradability is reported as “not readily biodegradable”.
For `O=C1c2ccccc2C(=O)c2ccccc21`, the ready biodegradability was “readily biodegradable”.
With `CC(=O)Nc1ccc(S(=O)(=O)O)cc1` the ready biodegradability was “not readily biodegradable”.
With `O=[N+]([O-])c1cccc(Cl)c1Cl` the ready biodegradability was “not readily biodegradable”.
With `CCC(C)(C)c1ccccc1` the ready biodegradability was “not readily biodegradable”.
For `O=C1OC(=O)C2CCCCC12` (stereo unspecified), the ready biodegradability was “not readily biodegradable”.
For `Nc1cccc(C(=O)O)c1`, the ready biodegradability was “not readily biodegradable”.
For `Clc1ccc(C(Cl)c2ccccc2)cc1` (stereo unspecified), the ready biodegradability was “not readily biodegradable”.
For `OCC(F)(F)C(F)(F)C(F)(F)C(F)(F)C(F)(F)C(F)(F)C(F)(F)C(F)(F)C(F)(F)C(F)F`, the ready biodegradability was “not readily biodegradable”.
With `Cc1ccc(C#N)c(=O)[nH]1` the ready biodegradability was “readily biodegradable”.
For `Cc1cc(Cl)ccc1O`, the ready biodegradability was “not readily biodegradable”.
For `CC(=O)N(C)c1ccccc1`, the ready biodegradability was “not readily biodegradable”.
With `c1ccc(CCc2ccccc2)cc1` the ready biodegradability was “readily biodegradable”.
For `O=C(O)COc1ccc(Cl)cc1Cl`, the ready biodegradability was “not readily biodegradable”.
For `CCCCC(CC)COP(=O)(O)CC(CC)CCCC` (stereo unspecified), the ready biodegradability was “not readily biodegradable”.

In order of rising log10 Koc (L/kg):
1. O=C(O)COc1ccc(Cl)cc1Cl  1.66
2. O=C(O)c1c(Cl)ccc(Cl)c1O  2.3
3. COc1cc(Cl)c(Cl)c(Cl)c1O  2.8
4. CCOP(=S)(OCC)SCCS(=O)(=O)CC  3.22
5. O=C1c2ccccc2C(=O)c2ccccc21  3.57

In order of falling log10 Koa:
1. Clc1ccc(-c2ccc(Cl)cc2)cc1  7.68
2. CCOC=O  2.19

Compound `CC1CCCC1C` (stereo unspecified) has a log10 biodegradation half-life (days) of 0.602.

same assay, conditions: fish

In order of falling log10 BCF:
1. COc1c(Cl)c(Cl)cc(Cl)c1Cl  3.69
2. Clc1cc2oc3c(Cl)c(Cl)ccc3c2cc1Cl  2.72
3. O=[N+]([O-])c1cccc(Cl)c1Cl  2.16
4. COc1cc(Cl)c(Cl)c(Cl)c1O  1.97
5. Cc1cc(Cl)ccc1O  1.33
6. CC(C)CCCCCCCOC(=O)c1ccccc1C(=O)OCCCCCCCC(C)C  1.16
7. Cc1ccc([N+](=O)[O-])cc1  0.9
8. Nc1cccc(N)c1  0.81
9. CCOP(=S)(OCC)SCCS(=O)(=O)CC  0.7
10. CC(=O)N(C)c1ccccc1  0.18

In order of falling log10 biotransformation half-life (days):
1. Clc1ccc(-c2cccc(Cl)c2Cl)cc1  2.16
2. CCCCCCCCCCc1ccccc1  0.63
3. O=[N+]([O-])c1cccc(Cl)c1Cl  0.54
4. CCOP(=S)(OCC)SCCS(=O)(=O)CC  -0.67
5. Cc1cc(Cl)ccc1O  -0.83
6. Cc1ccc([N+](=O)[O-])cc1  -1.01
7. CC(=O)N(C)c1ccccc1  -1.12
